One series concerns the target protein kinase C. Briefly: Protein Kinase C Inhibition (PKC assay, histone H1 phosphorylation). The conditions noted are these: 10 minutes; histone H1 substrate; rat brain enzyme. The class given is biochemical. On the procedure: The protein kinase C (PKC) assay is designed to duplicate the in vivo conditions required for protein kinase C function. Therefore, pH, salt and cofactor concentrations are similar to physiologic levels. A lysine rich histone H1 is used in the assay as the phosphorylation acceptor protein because it is readily available and serves as a good substrate for protein kinase C. Enzyme is prepared from rat brain and is purified to apparent homogeneity as determined by a single band on silver stained sodium dodeceyl sulfate (SDS)-polyacrylamide.
In the screening assay, phosphatidylserine (PS) and diacylglycerol (DAG) are co-sonicated to form unilamellar and multilamellar vesicles. The concentrations of lipids in the assay are suboptimal to maximize the detection potential for inhibitors. Potential inhibitor compounds are added to the assay in dimethylsulfoxide (DMSO) at three concentrations to give final inhibitor concentrations of 4.3, 43 and 218 μm, respectively. The assay is started with the addition of enzyme and stopped after 10 minutes by the addition of a 25% trichloroacetic acid (TCA) solution and 1.0 mg/ml bovine serum albumin (BSA). The radioactive histone product is retained and washed on glass fiber filters that allow the unreacted ^32 P-ATP to pass through. The amount of phosphorylation is determined by the radioactivity as measured in a scintillation counter. Controls are included in every assay to measure: background activity in the absence of enzyme, activity in the absence of lipids, and the maximum enzyme activity with saturating levels of the activator lipids.
HEPES is N-[2-hydroxyethyl] piperazine-N'-[2-ethanesulfonic acid] and EGTA is Ethylene-bis(oxyethylenenitrilo) tetraacetic acid.
Protein kinase C assay results are shown in Table 3 in the column labeled PKC. Results are shown as IC50, which is the concentration of test compound needed to inhibit 50% of the protein kinase C activity as compared with levels of protein kinase C activity in controls.

Series [1] addresses cAMP dependent protein kinase (PKA). Description: cAMP Dependent Protein Kinase (PKA) Assay. The class given is biochemical. Particulars: 10 min; catalytic subunit of PKA. The protocol:
Compounds found to be inhibitors of protein kinase C activity are tested for inhibitory activity against protein kinase (PKA). This enzyme, like protein kinase C, plays an important role in cell-cell communication and is activated by a second messenger, cAMP. Secondary screening against PKA is useful for ascertaining the selectivity of the compounds of the invention. A cAMP dependent protein kinase assay utilizes a catalytic subunit of PKA (Sigma Chemical Company, St. Louis, Missouri) that is mixed with buffer before addition of the inhibitor in dimethylsulfoxide (DMSO). The assay is started by the addition of ^32 P-ATP and the reaction is allowed to proceed for 10 min before stopping with 25% trichloroacetic acid (TCA) and 1.0 mg/ml bovine serum albumin (BSA). The phosphorylated protein is isolated by filtration and the radioactivity is counted in a beta scintillation counter.
PKA assay results are shown in Table 5 in the column labeled PKA. […] The tested compounds of the invention are selective for protein kinase C, and have no effect on cAMP dependent protein kinase. This is seen by a comparison of Tables 3 and 5. […] Thus, the compounds of the invention should have minimal or no effect on the metabolic pathways associated with stimulation of protein kinase by cAMP.

The test system of series [2] is human keratinocytes (NHEK cells). Description: Human Keratinocyte Inhibition (3H-thymidine incorporation). The class given is cell-based. On the procedure: Proliferating keratinocytes (NHEK cells purchased from Clonetics, Inc., San Diego, Calif.) in second passage were grown in Keratinocyte Growth Medium (KGM) (Clonetics, Inc.) Cells are trypsinized (0.025% trypsin, Clonetics), counted with a hemacytometer (Scientific Products), and seeded at a concentration of 2,500 cells/well in a 96 well microtiter plate. After allowing cells to attach to the surface overnight, the culture medium is aspirated and replaced with […] of fresh KGM. Test agents are evaluated and IC50,s are ^3 H-thymidine determined according to the ^3 H-thymidine incorporation procedures described as in Example 8. IC50 is the concentration of test compound required to inhibit fifty percent of the incorporation of H-thymidine into proliferating cells not exposed to test agent.

In the next series the test system is neutrophils. Description: Neutrophil Superoxide Anion (O2 -) Release Assay. The conditions noted are these: Homo sapiens, 0.5 h, PMA-stimulated, 37° C. for 30 min. The class given is cell-based. On the procedure:
Neutrophils are isolated form whole blood collected from human volunteers. All reagent materials are obtained from Sigma Chemical Company with the exception of isotonic saline (Travenol Laboratories, Inc., Deerfield, Ill.) and lymphocyte separation medium (Organon Teknika, Durham, N.C.).
Whole blood is drawn and mixed with sodium heparin (final conc. 10 units/ml) to prevent clotting. An equal volume of dextran (3.0%) in isotonic saline is added, mixed, and allowed to settle for 30 min to bind red blood cells (RBC). Supernatant is removed, underlayered with lymphocyte separation medium and centrifuged for 40 min at 400 xg in a centrifuge (Beckman GPR, Norcross, Ga.). The pellet is alternately resuspended in 0.2% and 1.6% NaCl to lyse RBCs before washing with Hank's Balanced Salt Solution (HBSS). The washed pellet is resuspended in 10 ml HBSS and placed on ice before counting on a hemacytometer.
The neutrophil cell concentration is adjusted to 2×10^6 cells/ml with HBSS before adding 0.8 ml cells to 12×75 mm polypropylene test tubes (Fisher Scientific). Test agents are diluted to determine dose response and added at 10X final concentration at a volume of 0.1 ml/tube in duplicate. Then 10X concentrations of cytochrome C (15 mg/ml) with catalase (3000 units/ml) either alone or containing 25 ng/ml phorbol 12-myristate 13-acetate (PMA) are added at a volume of 0.1 ml/tube and incubated at 37° C. for 30 min before stopping the reaction by placing tubes on ice. Tubes are then centrifuged at 900 xg for 10 min, 0.5 ml supernatant is removed and added to 0.5 ml H2 O in a microcuvette. Optical density (OD) of cytochrome c is read in a spectrophotometer (Shimadzu) at 550 nm. The ΔOD of cytochrome c is obtained between PMA-stimulated and non-stimulated tubes, and the dose responses of the test agents are compared to the positive controls (which contain HBSS in place of test agents). PMA stimulates O2 production which reduces cytochrome c. Reducing cytochrome c increases its absorbance, and the change in OD of cytochrome c is proportional to the amount of O2 produced by PMA stimulation. Inhibition of the O2 - burst by test compounds of the invention is seen as a reduction in the change in optical density. Inhibition is expressed as IC50 μM and is the amount of test compound that will inhibit fifty percent of the PMA-stimulated respiratory burst, i.e. O2 production.

Series [3] in a line: Solubility remark in tumor cell growth test. On the set-up: key: *: indicates that the compound was too insoluble to test. Particulars: footnote mark in Table 6. The class given is physicochemical.
A further series concerns MCF-7. Briefly: Human Tumor Cell Growth Inhibition (3H-thymidine uptake). Particulars: MCF7; MCF-7 human breast tumor cell line; 18-24 hrs; read-out: MCF-7 (IC50, 3H-thymidine incorporation). The class given is cell-based. From the text: MCF-7 a human breast tumor cell line and MCF-7/ADR an adriamycin resistant line of MCF-7 cells were obtained from the National Cancer Institute, Frederick, Md. CEM cells (ATCC accession number CCL 119) were obtained from the American Type Culture Collection, Rockville, Md.
Human tumor cells are trypsinized (0.05% trypsin, GIBCO), counted with a hemacytometer and seeded at a concentration of 10,000 cells/well in a 96 well microtiter plate. After allowing cells to attach to the surface overnight, the culture medium is aspirated and replaced with 100 μl of fresh medium. Test agents are diluted to determine dose response at 2X final concentration and added in quadruplicate at 100 μl/well to bring the total volume of each well to 200 μl. The microtiter plate is then incubated at 3 37° C. 5% CO2 overnight (18-24 hrs) before ^3 H-thymidine is added at a concentration of 0.5 μCi/well in 50 μl culture medium. The plate is incubated again for 4 hrs under the same conditions as above. Supernatant is then aspirated and 50 μl trypsin (0.05%, GIBCO) is added to each well. Cells are checked microscopically to determine detachment from surfaces, and plates are then harvested with a cell harvester (PHD, Cambridge Technology, Inc.) Filter papers corresponding to wells are placed in scintillation vials and counted to determine the amount of ^3 H-thymidine incorporated by the cells. […]
In general terms: Incorporation of labelled thymidine or its analogues reports DNA synthesis.

Five molecules from US5216014A, “Furo-coumarinsulfonamides as protein kinase C inhibitors” (Sphinx Pharmaceuticals Corporation, priority 1991, dated 1993) can be followed below.

A value given as a limit tells only on which side of the number the result lay.

Turning to `COc1c2occc2c(S(=O)(=O)NCCCNCCCCNCCCN)c2ccc(=O)oc12` [Compound 1, N-[3-[4-(3-amino-1-propyl)-amino-1-butyl]-amino-1-propyl]-s-methyl-furo[3,2-g]coumarin-5-sulfonamide], the IC50 is 30 µM against protein kinase C, over 218 µM in series [1], 11.9 µM in series [2] and over 10 µM in the series with neutrophils. Moreover, the “MCF-7: too insoluble to test” value in series [3] is recorded as “*”.
The matching figures for `COc1c2occc2c(S(=O)(=O)NCCCNCCCCNCCCNS(=O)(=O)c2c3ccoc3c(OC)c3oc(=O)ccc23)c2ccc(=O)oc12` [Compound 2]: 24 µM, over 218 µM, 1.4 µM, over 10 µM and “*”.
With `COc1c2occc2c(S(=O)(=O)NCCCCNCCCNS(=O)(=O)c2c3ccoc3c(OC)c3oc(=O)ccc23)c2ccc(=O)oc12` [Compound 3], the IC50 was 21 µM against protein kinase C; over 218 µM in series [1]; 5.5 µM in the series with MCF-7; 15.4 µM in series [2]; over 10 µM in the series with neutrophils.
The matching figures for `COc1c2occc2c(S(=O)(=O)NCCCN(C)CCCNS(=O)(=O)c2c3ccoc3c(OC)c3oc(=O)ccc23)c2ccc(=O)oc12` [Compound 4]: 17 µM, over 218 µM, 11 µM, 9.5 µM and over 10 µM.
At protein kinase C, `COc1c2occc2c(S(=O)(=O)NCCCNCCCNS(=O)(=O)c2c3ccoc3c(OC)c3oc(=O)ccc23)c2ccc(=O)oc12` [Compound 5] returned an IC50 of 33 µM.
